In ChEMBL document CHEMBL4715700, “Growth inhibitory effect of D-arabinose against the nematode Caenorhabditis elegans: Discovery of a novel bioactive monosaccharide” (Bioorg Med Chem Lett, 2016):
Calls of active or inactive are those of the source. No cut-off for these calls is given here.

Legend:
Caenorhabditis elegans [1] = assay: Growth inhibition of Caenorhabditis elegans N2 L1 larvae under monoxenic condition assessed as reduction in body size at 42 mM incubated for 72 hrs by microscopic method relative to control; format: functional, organism-based; details: for IC50: N2, 72 h
Caenorhabditis elegans [2] = assay: Growth inhibition of Caenorhabditis elegans N2 L1 larvae under monoxenic condition with Escherichia coli food assessed as reduction in body size at 42 mM incubated for 72 hrs by microscopic method relative to control; format: functional
Caenorhabditis elegans [3] = assay: Growth inhibition of Caenorhabditis elegans N2 assessed as reduction in body size at 10 mM in presence of 125 mM D-glucose by microscopic method; format: functional, organism-based
Caenorhabditis elegans [4] = assay: Growth inhibition of Caenorhabditis elegans N2 L1 larvae under axenic condition assessed as reduction in body size at 16 mM incubated for 7 days by microscopic method relative to control; format: functional; parameters: scale not given: the % may be the effect or the level left; details: time 7 day
Caenorhabditis elegans [5] = assay: Growth inhibition of Caenorhabditis elegans N2 assessed as reduction in body size at 10 mM in presence of D-ribose by microscopic method; format: functional, organism-based
[6] = Toxicity in Caenorhabditis elegans N2 under monoxenic condition with Escherichia coli food assessed as mortality at 42 mM incubated for 72 hrs by microscopic method relative to control; details: 42000 µM
Caenorhabditis elegans [7] = assay: Growth inhibition of Caenorhabditis elegans N2 assessed as reduction in body size at 10 mM in presence of D-fructose by microscopic method; format: functional, organism-based
Caenorhabditis elegans [8] = assay: Growth inhibition of Caenorhabditis elegans N2 L1 larvae under monoxenic condition with Escherichia coli food assessed as reduction in motility at 42 mM incubated for 72 hrs by microscopic method relative to control; format: functional, organism-based

Structure (SMILES) | Activity (Caenorhabditis elegans [2]) | also measured
OC[C@H]1OC(O)C[C@@H](O)[C@@H]1O (stereo partly drawn) |  | IC50 (Caenorhabditis elegans [1]): 19.5 mM
O=C[C@H](O)[C@@H](O)[C@H](O)CO | inactive | 
OC1OC[C@@H](O)[C@H](O)[C@@H]1O (stereo partly drawn) | inactive | 
OC1OC[C@H](O)[C@@H](O)[C@@H]1O (stereo partly drawn) | inactive | 
OC1OC[C@H](O)[C@@H](O)[C@H]1O (stereo partly drawn) | inactive | 
OC1OC[C@H](O)[C@H](O)[C@H]1O (stereo partly drawn) | inactive | 
OC[C@@H](O)C(O)[C@H](O)CO | inactive | 
OC[C@@H]1OC(O)[C@@H](O)[C@H]1O (stereo partly drawn) | inactive | 
OC[C@H]1OC(O)[C@H](O)[C@@H]1O (stereo partly drawn) | inactive | 
OC1OC[C@@H](O)[C@@H](O)[C@@H]1O (stereo partly drawn) [D-ARABINOSE] | 7.8% | Activity (Caenorhabditis elegans [3]): Active; Activity (Caenorhabditis elegans [4]): 15.2%; Activity (Caenorhabditis elegans [5]): inactive; Activity (Caenorhabditis elegans [1]): Dose-dependent effect; IC50 (Caenorhabditis elegans [1]): 7.5 mM; Activity [6]: Non-Toxic; Activity (Caenorhabditis elegans [7]): inactive; Activity (Caenorhabditis elegans [8]): Active
